From ChEMBL document CHEMBL3758169, “4-Aminoindazolyl-dihydrofuro[3,4-d]pyrimidines as non-covalent inhibitors of mutant epidermal growth factor receptor tyrosine kinase” (Bioorg Med Chem Lett, 2016)

Key:
[1] = target: Tyrosine-protein kinase TXK (Homo sapiens) (UniProt P42681); assay: Inhibition of TXK (unknown origin) at 100 nM
[2] = target: Phosphatidylinositol 4-kinase beta (Homo sapiens) (UniProt Q9UBF8); assay: Inhibition of PI4Kb (unknown origin) at 100 nM
[3] = target: Serine/threonine-protein kinase Nek7 (Homo sapiens) (UniProt Q8TDX7); assay: Inhibition of NEK7 (unknown origin) at 100 nM
[4] = target: Serine/threonine-protein kinase MARK2 (Homo sapiens) (UniProt Q7KZI7); assay: Inhibition of MARK2 (unknown origin) at 100 nM
[5] = target: Serine/threonine-protein kinase PLK2 (Homo sapiens) (UniProt Q9NYY3); assay: Inhibition of PLK2 (unknown origin) at 100 nM
[6] = target: LIM domain kinase 2 (Homo sapiens) (UniProt P53671); assay: Inhibition of LIMK2 (unknown origin) at 100 nM
[7] = target: Serine/threonine-protein kinase NLK (Homo sapiens) (UniProt Q9UBE8); assay: Inhibition of NLK (unknown origin) at 100 nM
[8] = target: Sphingosine kinase 1 (Homo sapiens) (UniProt Q9NYA1); assay: Inhibition of SPHK1 (unknown origin) at 100 nM
[9] = target: Casein kinase II subunit alpha (Homo sapiens) (UniProt P68400); assay: Inhibition of CK2alpha1 (unknown origin) at 100 nM
[10] = target: Phosphatidylinositol 3-kinase catalytic subunit type 3 (Homo sapiens) (UniProt Q8NEB9); assay: Inhibition of PI3KC3/hVPS34 (unknown origin) at 100 nM
[11] = target: RAC-gamma serine/threonine-protein kinase (Homo sapiens) (UniProt Q9Y243); assay: Inhibition of AKT3 (unknown origin) at 100 nM
[12] = target: Mitogen-activated protein kinase kinase kinase 20 (Homo sapiens) (UniProt Q9NYL2); assay: Inhibition of ZAK (unknown origin) at 100 nM
[13] = target: Proto-oncogene tyrosine-protein kinase ROS (Homo sapiens) (UniProt P08922); assay: Inhibition of ROS (unknown origin) at 100 nM
[14] = system: Mast/stem cell growth factor receptor Kit (Homo sapiens), P10721 [T670I]; assay: Inhibition of KIT T670I mutant (unknown origin) at 100 nM
[15] = target: Fibroblast growth factor receptor 3 (Homo sapiens) (UniProt P22607); assay: Inhibition of FGFR3 (unknown origin) at 100 nM
[16] = target: Ribosomal protein S6 kinase alpha-5 (Homo sapiens) (UniProt O75582); assay: Inhibition of MSK1 (unknown origin) at 100 nM
[17] = target: Phosphatidylinositol 4-phosphate 3-kinase C2 domain-containing subunit alpha (Homo sapiens) (UniProt O00443); assay: Inhibition of PI3KC2A (unknown origin) at 100 nM
[18] = target: MAP kinase-interacting serine/threonine-protein kinase 2 (Homo sapiens) (UniProt Q9HBH9); assay: Inhibition of MKNK2 (unknown origin) at 100 nM
[19] = target: Serine/threonine-protein kinase PLK3 (Homo sapiens) (UniProt Q9H4B4); assay: Inhibition of PLK3 (unknown origin) at 100 nM
[20] = target: Proto-oncogene tyrosine-protein kinase receptor Ret (Homo sapiens) (UniProt P07949); assay: Inhibition of RET (unknown origin) at 100 nM
[21] = target: Dual specificity mitogen-activated protein kinase kinase 6 (Homo sapiens) (UniProt P52564); assay: Inhibition of MKK6 (unknown origin) at 100 nM
[22] = target: Serine/threonine-protein kinase PAK 1 (Homo sapiens) (UniProt Q13153); assay: Inhibition of PAK1 (unknown origin) at 100 nM
[23] = target: Protein kinase C zeta type (Homo sapiens) (UniProt Q05513); assay: Inhibition of PKCzeta (unknown origin) at 100 nM
[24] = target: Discoidin domain-containing receptor 2 (Homo sapiens) (UniProt Q16832); assay: Inhibition of DDR2 (unknown origin) at 100 nM
[25] = target: Tyrosine-protein kinase ABL2 (Homo sapiens) (UniProt P42684); assay: Inhibition of ARG (unknown origin) at 100 nM
[26] = target: Eukaryotic elongation factor 2 kinase (Homo sapiens) (UniProt O00418); assay: Inhibition of EEF2K (unknown origin) at 100 nM
[27] = target: Serine/threonine-protein kinase SIK2 (Homo sapiens) (UniProt Q9H0K1); assay: Inhibition of SIK2 (unknown origin) at 100 nM
[28] = target: Tyrosine-protein kinase Fer (Homo sapiens) (UniProt P16591); assay: Inhibition of FER (unknown origin) at 100 nM
[29] = target: Ribosomal protein S6 kinase alpha-3 (Homo sapiens) (UniProt P51812); assay: Inhibition of RSK2 (unknown origin) at 100 nM
[30] = target: MAP kinase-interacting serine/threonine-protein kinase 1 (Homo sapiens) (UniProt Q9BUB5); assay: Inhibition of MKNK1 (unknown origin) at 100 nM
[31] = target: PAS domain-containing serine/threonine-protein kinase (Homo sapiens) (UniProt Q96RG2); assay: Inhibition of PASK (unknown origin) at 100 nM
[32] = target: Focal adhesion kinase 1 (Homo sapiens) (UniProt Q05397); assay: Inhibition of FAK (unknown origin) at 100 nM
Homo sapiens [33] = species on record: Homo sapiens; assay: Inhibition of MKK6 S207E/T211E double mutant (unknown origin) at 100 nM
[34] = target: Serine/threonine-protein kinase D2 (Homo sapiens) (UniProt Q9BZL6); assay: Inhibition of PKD2 (unknown origin) at 100 nM
[35] = target: Interleukin-1 receptor-associated kinase 1 (Homo sapiens) (UniProt P51617); assay: Inhibition of IRAK1 (unknown origin) at 100 nM
[36] = target: Ephrin type-B receptor 2 (Homo sapiens) (UniProt P29323); assay: Inhibition of EPHB2 (unknown origin) at 100 nM
[37] = target: Serine/threonine-protein kinase PAK 2 (Homo sapiens) (UniProt Q13177); assay: Inhibition of PAK2 (unknown origin) at 100 nM
[38] = target: Calcium/calmodulin-dependent protein kinase type II subunit beta (Homo sapiens) (UniProt Q13554); assay: Inhibition of CaMKIIbeta (unknown origin) at 100 nM
[39] = target: Serine/threonine-protein kinase N1 (Homo sapiens) (UniProt Q16512); assay: Inhibition of PRK1 (unknown origin) at 100 nM
[40] = target: Homeodomain-interacting protein kinase 1 (Homo sapiens) (UniProt Q86Z02); assay: Inhibition of HIPK1 (unknown origin) at 100 nM
[41] = target: Myotonin-protein kinase (Homo sapiens) (UniProt Q09013); assay: Inhibition of DMPK (unknown origin) at 100 nM
Homo sapiens [42] = species on record: Homo sapiens; assay: Inhibition of MET I250T mutant (unknown origin) at 100 nM
[43] = target: Serine/threonine-protein kinase 26 (Homo sapiens) (UniProt Q9P289); assay: Inhibition of MST4 (unknown origin) at 100 nM

Serine/threonine-protein kinase SIK2 (Homo sapiens), sequence (Q9H0K1 whole entry, looked up): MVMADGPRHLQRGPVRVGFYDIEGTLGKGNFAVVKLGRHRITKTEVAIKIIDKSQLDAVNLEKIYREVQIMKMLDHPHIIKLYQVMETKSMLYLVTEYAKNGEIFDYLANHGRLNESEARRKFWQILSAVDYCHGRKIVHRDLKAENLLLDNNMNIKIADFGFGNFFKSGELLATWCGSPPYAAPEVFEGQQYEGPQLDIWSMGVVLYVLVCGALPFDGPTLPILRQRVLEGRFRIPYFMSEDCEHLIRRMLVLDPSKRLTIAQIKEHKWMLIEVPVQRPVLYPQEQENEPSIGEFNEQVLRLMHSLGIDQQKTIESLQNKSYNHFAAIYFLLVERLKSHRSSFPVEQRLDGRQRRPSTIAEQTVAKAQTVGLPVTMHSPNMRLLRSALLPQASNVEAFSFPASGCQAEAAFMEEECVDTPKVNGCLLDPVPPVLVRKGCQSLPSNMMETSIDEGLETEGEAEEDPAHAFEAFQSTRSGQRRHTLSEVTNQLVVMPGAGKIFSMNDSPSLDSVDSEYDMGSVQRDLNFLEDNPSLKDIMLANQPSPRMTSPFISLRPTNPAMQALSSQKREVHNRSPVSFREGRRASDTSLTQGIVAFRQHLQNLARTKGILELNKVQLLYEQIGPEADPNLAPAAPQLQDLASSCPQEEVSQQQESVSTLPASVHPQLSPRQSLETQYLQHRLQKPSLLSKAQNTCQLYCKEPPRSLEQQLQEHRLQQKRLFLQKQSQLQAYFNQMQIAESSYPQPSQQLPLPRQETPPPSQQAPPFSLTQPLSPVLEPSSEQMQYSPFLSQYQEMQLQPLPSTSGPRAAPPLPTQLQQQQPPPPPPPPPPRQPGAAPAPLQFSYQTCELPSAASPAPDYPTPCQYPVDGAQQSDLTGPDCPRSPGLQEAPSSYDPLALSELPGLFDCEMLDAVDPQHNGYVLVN
MAP kinase-interacting serine/threonine-protein kinase 2 (Homo sapiens), sequence (Q9HBH9 whole entry, looked up): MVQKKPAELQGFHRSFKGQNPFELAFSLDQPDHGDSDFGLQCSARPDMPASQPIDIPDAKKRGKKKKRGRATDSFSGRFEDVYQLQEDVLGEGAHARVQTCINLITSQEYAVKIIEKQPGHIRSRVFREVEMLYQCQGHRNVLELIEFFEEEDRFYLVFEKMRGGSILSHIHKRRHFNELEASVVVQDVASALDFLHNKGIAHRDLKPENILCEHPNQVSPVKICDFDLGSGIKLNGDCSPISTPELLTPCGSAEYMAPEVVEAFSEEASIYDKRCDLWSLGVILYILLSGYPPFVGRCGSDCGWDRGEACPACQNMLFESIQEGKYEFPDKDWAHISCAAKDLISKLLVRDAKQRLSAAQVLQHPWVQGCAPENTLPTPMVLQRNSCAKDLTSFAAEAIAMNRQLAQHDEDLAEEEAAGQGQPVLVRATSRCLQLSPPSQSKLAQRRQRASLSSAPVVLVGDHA
Serine/threonine-protein kinase N1 (Homo sapiens), sequence (Q16512 2-942 limits assumed): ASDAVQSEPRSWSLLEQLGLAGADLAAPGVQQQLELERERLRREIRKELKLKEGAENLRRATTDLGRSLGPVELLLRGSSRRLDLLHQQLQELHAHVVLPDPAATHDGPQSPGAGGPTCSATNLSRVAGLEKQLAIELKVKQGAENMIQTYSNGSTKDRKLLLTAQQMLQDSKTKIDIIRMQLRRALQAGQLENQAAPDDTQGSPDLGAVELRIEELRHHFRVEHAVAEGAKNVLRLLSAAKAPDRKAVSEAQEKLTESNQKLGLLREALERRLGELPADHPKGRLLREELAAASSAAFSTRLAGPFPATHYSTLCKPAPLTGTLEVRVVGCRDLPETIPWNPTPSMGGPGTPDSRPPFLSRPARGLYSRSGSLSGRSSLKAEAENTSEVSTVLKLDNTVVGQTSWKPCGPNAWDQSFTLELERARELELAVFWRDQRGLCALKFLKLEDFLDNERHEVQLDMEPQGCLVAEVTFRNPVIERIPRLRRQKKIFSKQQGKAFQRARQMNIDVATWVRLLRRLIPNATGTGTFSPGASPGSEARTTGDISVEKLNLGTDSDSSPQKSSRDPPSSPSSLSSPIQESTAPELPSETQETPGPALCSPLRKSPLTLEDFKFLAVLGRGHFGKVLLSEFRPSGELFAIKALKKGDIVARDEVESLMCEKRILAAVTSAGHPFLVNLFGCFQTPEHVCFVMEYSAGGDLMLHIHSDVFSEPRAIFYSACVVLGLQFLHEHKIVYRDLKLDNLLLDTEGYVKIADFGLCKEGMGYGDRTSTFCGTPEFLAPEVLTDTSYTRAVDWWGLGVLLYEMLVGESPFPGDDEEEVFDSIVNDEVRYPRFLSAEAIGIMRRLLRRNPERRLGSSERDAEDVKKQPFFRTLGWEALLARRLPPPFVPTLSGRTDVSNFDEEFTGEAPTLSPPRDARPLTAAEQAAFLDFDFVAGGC
Interleukin-1 receptor-associated kinase 1 (Homo sapiens), sequence (P51617 whole entry, looked up): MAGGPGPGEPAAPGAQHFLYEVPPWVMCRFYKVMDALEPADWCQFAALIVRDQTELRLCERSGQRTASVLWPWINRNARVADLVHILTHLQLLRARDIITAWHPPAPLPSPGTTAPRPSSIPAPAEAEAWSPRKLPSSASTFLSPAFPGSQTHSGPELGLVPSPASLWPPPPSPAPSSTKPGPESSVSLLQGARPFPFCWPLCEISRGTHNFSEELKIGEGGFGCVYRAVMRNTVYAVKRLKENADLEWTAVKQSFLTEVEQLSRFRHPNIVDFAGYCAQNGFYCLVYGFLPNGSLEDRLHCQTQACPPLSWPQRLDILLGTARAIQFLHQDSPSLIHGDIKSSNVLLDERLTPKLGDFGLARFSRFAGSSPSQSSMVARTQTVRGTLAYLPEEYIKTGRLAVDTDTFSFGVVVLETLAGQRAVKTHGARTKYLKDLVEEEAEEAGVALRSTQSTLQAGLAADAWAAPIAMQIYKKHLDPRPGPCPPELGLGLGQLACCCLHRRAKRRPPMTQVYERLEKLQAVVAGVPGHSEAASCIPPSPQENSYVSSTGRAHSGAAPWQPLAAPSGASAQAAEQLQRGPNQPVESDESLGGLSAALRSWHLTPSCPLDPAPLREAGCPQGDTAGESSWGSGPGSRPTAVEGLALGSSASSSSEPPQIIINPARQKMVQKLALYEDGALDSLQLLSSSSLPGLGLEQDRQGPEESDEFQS
Eukaryotic elongation factor 2 kinase (Homo sapiens), sequence (O00418 whole entry): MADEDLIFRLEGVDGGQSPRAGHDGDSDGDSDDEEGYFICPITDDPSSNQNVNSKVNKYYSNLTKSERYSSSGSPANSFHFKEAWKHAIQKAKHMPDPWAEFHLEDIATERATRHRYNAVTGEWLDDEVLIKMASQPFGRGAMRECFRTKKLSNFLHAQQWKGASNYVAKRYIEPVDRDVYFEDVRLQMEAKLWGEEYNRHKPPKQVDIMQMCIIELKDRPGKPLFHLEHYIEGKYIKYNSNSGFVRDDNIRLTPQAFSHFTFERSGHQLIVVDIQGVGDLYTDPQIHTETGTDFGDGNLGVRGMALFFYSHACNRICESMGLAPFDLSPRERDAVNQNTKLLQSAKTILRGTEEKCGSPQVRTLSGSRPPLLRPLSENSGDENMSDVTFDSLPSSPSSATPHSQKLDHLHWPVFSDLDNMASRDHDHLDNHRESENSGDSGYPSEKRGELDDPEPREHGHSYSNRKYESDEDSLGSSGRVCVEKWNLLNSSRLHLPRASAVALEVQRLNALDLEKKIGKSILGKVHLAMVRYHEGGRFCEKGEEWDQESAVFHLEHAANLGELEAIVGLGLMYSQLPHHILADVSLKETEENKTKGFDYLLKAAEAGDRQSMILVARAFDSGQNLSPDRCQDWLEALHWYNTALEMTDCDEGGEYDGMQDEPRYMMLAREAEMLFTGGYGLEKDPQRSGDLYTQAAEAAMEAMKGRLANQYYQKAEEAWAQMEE
Proto-oncogene tyrosine-protein kinase receptor Ret (Homo sapiens), sequence (P07949 whole entry): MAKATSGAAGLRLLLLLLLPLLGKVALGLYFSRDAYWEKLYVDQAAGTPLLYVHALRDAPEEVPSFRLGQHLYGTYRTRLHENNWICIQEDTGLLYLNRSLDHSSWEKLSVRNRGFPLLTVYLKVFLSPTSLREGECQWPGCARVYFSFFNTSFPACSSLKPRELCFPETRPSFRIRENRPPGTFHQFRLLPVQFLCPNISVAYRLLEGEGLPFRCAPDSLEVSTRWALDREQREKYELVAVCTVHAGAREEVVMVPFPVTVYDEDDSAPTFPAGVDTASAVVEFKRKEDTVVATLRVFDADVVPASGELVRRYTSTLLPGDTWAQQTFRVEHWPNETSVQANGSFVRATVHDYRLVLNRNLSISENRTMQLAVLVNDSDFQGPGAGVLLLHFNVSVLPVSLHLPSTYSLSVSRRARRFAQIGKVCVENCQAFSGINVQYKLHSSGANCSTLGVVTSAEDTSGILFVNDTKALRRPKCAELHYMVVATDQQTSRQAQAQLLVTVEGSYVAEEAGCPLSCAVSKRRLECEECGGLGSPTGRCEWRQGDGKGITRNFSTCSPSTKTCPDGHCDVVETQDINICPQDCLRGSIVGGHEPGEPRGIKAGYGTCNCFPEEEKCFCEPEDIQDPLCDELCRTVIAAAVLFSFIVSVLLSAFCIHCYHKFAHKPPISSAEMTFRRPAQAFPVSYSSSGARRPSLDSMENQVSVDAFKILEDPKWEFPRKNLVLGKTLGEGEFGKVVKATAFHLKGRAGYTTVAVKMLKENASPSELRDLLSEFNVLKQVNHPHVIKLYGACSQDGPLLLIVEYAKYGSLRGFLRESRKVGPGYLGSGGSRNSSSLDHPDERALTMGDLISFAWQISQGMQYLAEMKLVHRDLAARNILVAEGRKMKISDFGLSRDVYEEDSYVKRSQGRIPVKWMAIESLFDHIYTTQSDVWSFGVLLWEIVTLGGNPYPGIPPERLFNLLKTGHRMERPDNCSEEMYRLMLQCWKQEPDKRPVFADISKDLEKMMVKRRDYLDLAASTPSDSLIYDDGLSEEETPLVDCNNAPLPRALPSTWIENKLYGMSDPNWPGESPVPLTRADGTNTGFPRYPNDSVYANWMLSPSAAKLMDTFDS

SMILES: CC1(C)OCc2c(Nc3n[nH]c4ccccc34)nc(-c3cn[nH]c3)nc21
- inhibition [1]: 61.5%
- inhibition [2]: 10.1%
- inhibition [3]: 8.4%
- inhibition [4]: -5.3%
- inhibition [5]: 5.5%
- inhibition [6]: -2.1%
- inhibition [7]: -0.6%
- inhibition [8]: 0%
- inhibition [9]: 1.4%
- inhibition [10]: 7.4%
- inhibition [11]: 10.4%
- inhibition [12]: 11.4%
- inhibition [13]: 11.4%
- inhibition [14]: 17.9%
- inhibition [15]: 18.4%
- inhibition [16]: 11.5%
- inhibition [17]: 2.9%
- inhibition [18]: -2.3%
- inhibition [19]: -5.4%
- inhibition [20]: 98.2%
- inhibition [21]: -0.9%
- inhibition [22]: -4.1%
- inhibition [23]: 7.2%
- inhibition [24]: 23.4%
- inhibition [25]: 69.5%
- inhibition [26]: 7.5%
- inhibition [27]: 35.3%
- inhibition [28]: 6.9%
- inhibition [29]: -5.9%
- inhibition [30]: 2.3%
- inhibition [31]: 1.2%
- inhibition [32]: 7.2%
- inhibition (Homo sapiens [33]): 10.2%
- inhibition [34]: 7.8%
- inhibition [35]: 2.2%
- inhibition [36]: 15.3%
- inhibition [37]: 0.3%
- inhibition [38]: 11.2%
- inhibition [39]: 3.7%
- inhibition [40]: -2%
- inhibition [41]: 3.3%
- inhibition (Homo sapiens [42]): 4%
- inhibition [43]: 0.2%
